# Measurements taken from patent US20070218147A1, “Peroxisome Proliferator-Activated Receptor (Ppar) Activator, and Drugs, Supplements, Functional Foods and Food Additives Using the Same” (ARKRAY, INC., priority 2004, published 2007).
# Target: T1, human PPARγ ligand-binding domain (Homo sapiens, UniProt P37231)
# T1 construct: expressed in transfected cells; host or cells: CV-1 cells (African green monkey kidney)
# T1 sequence (P37231 204-505): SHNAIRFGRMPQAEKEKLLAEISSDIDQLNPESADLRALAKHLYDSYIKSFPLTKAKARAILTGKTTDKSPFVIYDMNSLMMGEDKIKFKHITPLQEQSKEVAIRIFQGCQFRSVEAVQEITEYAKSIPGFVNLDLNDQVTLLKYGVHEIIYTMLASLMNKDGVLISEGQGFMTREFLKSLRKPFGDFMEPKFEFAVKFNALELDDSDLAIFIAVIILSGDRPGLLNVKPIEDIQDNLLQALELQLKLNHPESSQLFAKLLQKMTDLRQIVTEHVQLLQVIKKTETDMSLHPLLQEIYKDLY
# Assay: GAL4-hPPARγ luciferase reporter assay (PPARγ ligand activity) in transfected CV-1 cells
# Assay type: cell-based
# Conditions: for PPARγ ligand activity: 24 hour incubation, CV-1 cells, luciferase activity relative to non-treatment control (DMSO) = 100, average ± standard error, n=4
# Experimental: First, CV-1 cells (cultured cells derived from kidneys of male African green monkeys) were implanted on 24-well culture plates so as to be […] and cultured at 37° C. in 5% CO2 for 24 hours. As a medium, DMEM (Dulbecco's Modified Eagle Medium; manufactured by GIBCO) containing 10% FBS (fetal bovine serum) and a 10 mg/mL penicillin streptomycin solution was used. Next, using Lipofectamine system (manufactured by Invitrogen Corporation), pM-hPPARγ and p4×UASg-tk-luc were transfected into the cultured CV-1 cells. The above-noted pM-hPPARγ was a vector for expressing fused protein containing residues 1 - 147 of GAL4 binding domain and residues 204 - 505 of human PPARγ ligand-binding domain, whereas the above-noted p4×UASg-tk-luc was a reporter plasmid containing four copies of an upstream activating sequence (UAS) for GAL4 binding domain and a thymidine kinase gene promoter in front of a luciferase gene. After the transfection, the cells were cultured for about 24 hours, and then, the media for the cells were changed to media containing β-cryptoxantine at respective concentrations (0.1, 1.0, 10 and 70 μM) or media for non-treatment control, followed by an additional 24 hour incubation. The above-noted media containing β-cryptoxantine were prepared by adding β-cryptoxantine dissolved in dimethyl sulfoxide (DMSO) to the media, whereas the media for non-treatment control were prepared by adding only DMSO to the media. After the incubation, the cells were lysed for luciferase activation assay using a Dual-Luciferase Reporter Gene Assay system (manufactured by Promega Corporation) (measurement group).
# Similarly to the measurement group, as a control group, the luciferase activation assay was performed using pM (a vector containing residues 1 - 147 of GAL4 binding domain and not containing residues 204-505 of PPARγ ligand-binding domain in pM-hPPARγ) instead of pM-hPPARγ. For each sample, the ratio between average light-emission intensities of the measurement group and the control group (n=4) (measurement group/control group) was calculated, and a luciferase activity relative to the non-treatment control was determined as the PPARγ ligand-binding activity of the sample.
compound,measurement,setting,value
CC1=C(/C=C/C(C)=C/C=C/C(C)=C/C=C/C=C(C)/C=C/C=C(C)/C=C/C2=C(C)C[C@@H](O)CC2(C)C)C(C)(C)CCC1 [β-cryptoxantine],activity of PPARγ (result in words),"0.1 to 70 μM, activity increased in keeping with the concentration",improved the activity of PPARγ
same,PPARγ ligand activity,addition concentration 0.1 μM,119 ± 18.4
same,PPARγ ligand activity,addition concentration 1.0 μM,159 ± 25.0
same,PPARγ ligand activity,addition concentration 10 μM,166 ± 21.7
same,PPARγ ligand activity,addition concentration 70 μM,246 ± 22.5
